Results: patent US20210323977A1, “PYRROLIDINYL AMIDE COMPOUNDS FOR THE TREATMENT OF AUTOIMMUNE DISEASE” (Hoffmann-La Roche Inc., priority 2018, published 2021)

Target: T1, human TLR9 (Homo sapiens, UniProt Q9NR96)
T1 sequence (Q9NR96 26-1032): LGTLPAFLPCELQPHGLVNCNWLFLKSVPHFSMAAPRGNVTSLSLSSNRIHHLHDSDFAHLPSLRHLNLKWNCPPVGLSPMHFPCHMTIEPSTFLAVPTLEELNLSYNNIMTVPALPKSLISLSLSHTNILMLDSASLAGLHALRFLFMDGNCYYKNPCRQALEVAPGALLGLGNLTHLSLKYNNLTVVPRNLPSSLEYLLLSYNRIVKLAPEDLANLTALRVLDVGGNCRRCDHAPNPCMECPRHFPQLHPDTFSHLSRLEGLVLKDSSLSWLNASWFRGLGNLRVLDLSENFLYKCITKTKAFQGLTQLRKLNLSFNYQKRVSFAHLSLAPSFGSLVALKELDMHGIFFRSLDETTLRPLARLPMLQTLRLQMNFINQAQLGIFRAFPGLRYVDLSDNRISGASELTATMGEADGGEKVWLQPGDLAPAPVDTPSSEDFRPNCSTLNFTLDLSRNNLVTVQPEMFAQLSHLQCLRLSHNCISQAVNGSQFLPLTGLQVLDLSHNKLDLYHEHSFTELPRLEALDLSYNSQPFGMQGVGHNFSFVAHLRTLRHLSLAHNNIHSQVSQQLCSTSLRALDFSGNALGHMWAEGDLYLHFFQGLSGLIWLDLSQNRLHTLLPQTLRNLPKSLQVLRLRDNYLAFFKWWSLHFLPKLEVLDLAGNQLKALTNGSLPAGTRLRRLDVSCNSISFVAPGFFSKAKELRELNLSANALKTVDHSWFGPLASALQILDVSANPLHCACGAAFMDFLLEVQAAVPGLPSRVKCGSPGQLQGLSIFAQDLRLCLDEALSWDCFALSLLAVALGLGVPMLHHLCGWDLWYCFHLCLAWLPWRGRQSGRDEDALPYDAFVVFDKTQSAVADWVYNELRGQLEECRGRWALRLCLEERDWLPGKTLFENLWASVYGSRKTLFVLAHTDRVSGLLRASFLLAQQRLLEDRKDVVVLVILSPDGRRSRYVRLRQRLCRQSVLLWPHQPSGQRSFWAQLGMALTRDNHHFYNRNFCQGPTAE
Test: HEK293-Blue-hTLR-9 cells assay
Type: cell-based
Details: HEK293-Blue-hTLR9 cells, SEAP reporter, ODN2006 stimulation, 20 hrs
Source text: HEK293-Blue-hTLR-9 Cells Assay:
A stable HEK293-Blue-hTLR-9 cell line was purchased from InvivoGen (Cat. #: hkb-htlh9, San Diego, Calif., USA). These cells were originally designed for studying the stimulation of human TLR9 by monitoring the activation of NF-κB. A SEAP (secreted embryonic alkaline phosphatase) reporter gene was placed under the control of the IFN-β minimal promoter fused to five NF-κB and AP-1-binding sites. The SEAP was induced by activating NF-κB and AP-1 via stimulating HEK-Blue hTLR9 cells with TLR9 ligands. Therefore the reporter expression was declined by TLR9 antagonist under the stimulation of a ligand, such as ODN2006 (Cat. #: tlrl-2006-1, Invivogen, San Diego, Calif., USA), for incubation of 20 hrs. The cell culture supernatant SEAP reporter activity was determined using QUANTI-Blue™ kit (Cat. #: rep-qb1, Invivogen, San Diego, Calif., USA) at a wavelength of 640 nm, a detection medium that turns purple or blue in the presence of alkaline phosphatase.
HEK293-Blue-hTLR9 cells were incubated at a density of 250,000-450,000 cells/mL in a volume of 170 μL in a 96-well plate in Dulbecco's Modified Eagle's medium (DMEM) containing 4.5 g/L glucose, 50 U/mL penicillin, […], […], 2 mM L-glutamine, 10% (v/v) heat-inactivated fetal bovine serum with addition of 20 sL test compound in a serial dilution in the presence of final DMSO at 1% and 10 sL of 20 uM ODN2006 in above DMEM, perform incubation under 37° C. in a CO2 incubator for 20 hrs. Then 20 sL of the supernatant from each well was incubated with 180 μL Quanti-blue substrate solution at 37° C. for 2 hrs and the absorbance was read at 620-655 nm using a spectrophotometer. The signalling pathway that TLR9 activation leads to downstream NF-x3B activation has been widely accepted, and therefore similar reporter assay was modified for evaluating TLR9 antagonist.

SMILES	IC50
N#Cc1ccc(N2C[C@@H](C(F)(F)F)[C@H](C(=O)N[C@H]3CNC[C@H]3F)C2)c2cccnc12 [Example 47, Trans-1-(8-cyano-5-quinolyl)-N-[(3S,4R)-4-fluoropyrrolidin-3-yl]-4-(trifluoromethyl)pyrrolidine-3-carboxamide]	23.1 µM
C[C@H]1CN(c2ccc(Cl)c3ncccc23)C[C@@H]1C(=O)NC1CCN(C)CC1 [Example 50, (3R,4R)-1-(8-chloro-5-quinolyl)-4-methyl-N-(1-methyl-4-piperidyl)pyrrolidine-3-carboxamide]	3.4 µM
CN1CCCC(CNC(=O)C2CN(c3ccc(C#N)c4ncccc34)CC23CC3)C1 (centres unmarked) [Example 51, 5-(8-Cyano-5-quinolyl)-N-[(1-methyl-3-piperidyl)methyl]-5-azaspiro[2.4]heptane-7-carboxamide]	2 µM
C[C@@H]1CN(c2ccc(C#N)c3ncccc23)C[C@H]1C(=O)N[C@H]1CNC[C@H]1F [Example 56, Trans-1-(8-cyano-5-quinolyl)-N-[(3S,4R)-4-fluoropyrrolidin-3-yl]-4-methyl-pyrrolidine-3-carboxamide]	18.6 µM
C[C@H]1CN(c2ccc(C#N)c3nccnc23)C[C@@H]1C(=O)NC1CCN(C2CCNCC2)CC1 [Example 60, (3R,4R)-1-(8-cyanoquinoxalin-5-yl)-4-methyl-N-[1-(4-piperidyl)-4-piperidyl]pyrrolidine-3-carboxamide]	3.2 µM
